{"source": "patent US11369602B2", "about": "“Use of tadalafil as protein arginine methyltransferase (PRMT5) inhibitor” (Fourth Mil. Med. Univ. of People's Lib. Army, priority 2019, dated 2022)", "key": {"[1]": {"tested_on": "MDA-MB-231 tumor", "assay": "MDA-MB-231 xenograft tumor growth in immunodeficient mice", "format": "in vivo", "details": "Tadalafil oral gavage 2 mg/kg once a day; Doxorubicin tail vein 2 mg/kg once a week; 25 days (FIG. 6)", "protocol": "Immunodeficient mice were seeded with MDA-MB-231 cells respectively. When tumor volumes reached 50-100 mm3, mice were given treatment selected from the following: PBS (Control, Ctrl), Tadalafil, Doxorubicin (DOX), Tadalafil in combination with Doxorubicin (DOX+Tadalafil). Tadalafil was administered by oral gavage (2 mg/kg, once a day) while Doxorubicin was administered by mouse tail vein injection (2 mg/kg, once a week). Body weights of mice and tumor volumes were measured every day for 25 days."}, "[2]": {"tested_on": "tumor", "assay": "Later functional experiment (tumor inhibitory effect)"}, "[3]": {"molecular_target": "T1, PRMT5 (PRMT5/MEP50 purified protein) (Homo sapiens, UniProt O14744)", "T1 construct": "purchased abcam ab198151", "T1 sequence (O14744 whole entry)": "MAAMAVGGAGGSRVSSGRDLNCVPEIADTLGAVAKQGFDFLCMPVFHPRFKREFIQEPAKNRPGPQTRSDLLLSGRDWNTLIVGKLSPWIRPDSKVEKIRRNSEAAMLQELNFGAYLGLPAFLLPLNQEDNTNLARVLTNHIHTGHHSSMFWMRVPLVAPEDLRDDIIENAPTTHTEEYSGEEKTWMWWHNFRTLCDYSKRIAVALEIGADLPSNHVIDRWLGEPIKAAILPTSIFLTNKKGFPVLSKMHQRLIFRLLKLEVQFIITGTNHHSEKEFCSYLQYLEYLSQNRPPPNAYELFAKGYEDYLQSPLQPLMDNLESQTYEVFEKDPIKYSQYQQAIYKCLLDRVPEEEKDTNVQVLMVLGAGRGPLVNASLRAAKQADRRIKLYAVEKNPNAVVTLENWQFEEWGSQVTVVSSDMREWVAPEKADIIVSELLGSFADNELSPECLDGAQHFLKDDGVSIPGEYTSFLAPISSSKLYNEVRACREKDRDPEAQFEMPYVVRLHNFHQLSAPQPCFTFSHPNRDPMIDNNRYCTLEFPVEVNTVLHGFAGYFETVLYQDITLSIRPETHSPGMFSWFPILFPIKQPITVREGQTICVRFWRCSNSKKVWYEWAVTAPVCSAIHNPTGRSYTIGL", "T1 sequence (Q9BQA1 whole entry partner)": "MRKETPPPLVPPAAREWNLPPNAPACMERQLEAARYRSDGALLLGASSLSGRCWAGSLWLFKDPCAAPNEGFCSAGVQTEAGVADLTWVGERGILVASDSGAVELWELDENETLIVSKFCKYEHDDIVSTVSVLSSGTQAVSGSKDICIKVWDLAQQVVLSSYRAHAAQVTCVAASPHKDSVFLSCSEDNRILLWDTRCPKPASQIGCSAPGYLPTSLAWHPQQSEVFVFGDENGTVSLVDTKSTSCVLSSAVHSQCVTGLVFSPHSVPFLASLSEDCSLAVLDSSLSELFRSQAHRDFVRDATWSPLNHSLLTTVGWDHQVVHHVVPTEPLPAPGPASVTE", "assay": "SPR affinity analysis (Biacore T200)", "format": "binding", "protocol": "Analysis of affinity of Tadalafil for target protein (PRMT5) was carried out using Biacore T200 analysis platform and SPR technology. Tadalafil was obtained from MCE corporation with catalog no: HY-9 0009A (50 mg). PRMT5/MEP50 purified protein was obtained from abcam corporation with catalog no: ab198151 (20 μg). Tadalafil was diluted to a series of concentrations in sequence of: 0.78, 1.56, 3.125, 6.25, 12.5, 25, 50 and 100 (μM)."}}}
{"smiles": "COc1cccc2c1C(=O)c1c(O)c3c(c(O)c1C2=O)C[C@@](O)(C(=O)CO)C[C@@H]3O[C@H]1C[C@H](N)[C@H](O)[C@H](C)O1", "note": "[Doxorubicin]", "values": [{"measurement": "mouse tumor volume / tumor growth", "setting": "[1]", "value": "inhibited tumor growth"}]}
{"smiles": "O=C(O)c1cc(/N=N/c2ccc(S(=O)(=O)Nc3ccccn3)cc2)ccc1O", "note": "[Sulfasalazine]", "values": [{"measurement": "tumor inhibitory effect", "setting": "[2]", "value": "relatively weak tumor inhibitory effect"}, {"measurement": "binding ability to PRMT5", "setting": "[3]; SPR experiment", "value": "lower binding ability to PRMT5"}]}
{"smiles": "CN1CC(=O)N2[C@H](c3ccc4c(c3)OCO4)c3[nH]c4ccccc4c3C[C@@H]2C1=O", "note": "[Tadalafil]", "values": [{"measurement": "Kd", "setting": "[3]; SPR, Biacore T200, Tadalafil 0.78-100 μM", "value": "22.7 ± 9.6", "unit": "µM"}]}
